Source: patent publication US20240239755A1, “SUBSTITUTED PYRIDAZINONES, SALTS OR N-OXIDES THEREOF AND THEIR USE AS HERBICIDALLY ACTIVE SUBSTANCES” (Bayer Aktiengesellschaft, priority 2021, published 2024)

Legend:
Assay type in all cases: in vivo
[1] = test system: Kochia scoparia (KCHSC); test: Herbicidal pre-emergence action, 1280 g/ha (Table A4); details: visual grading after ca. 3 weeks vs untreated controls
In short: (§1)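 Pre-emergence soil-surface spray, sandy loam, mono-/dicot double sowings per pot; WP or EC formulations, aqueous, +0.5% additive, 600 L/ha water. Greenhouse, optimum conditions. Visual % damage vs untreated at ca. 3 wk (100% = dead).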

[2] = test system: Kochia scoparia (KCHSC); test: Herbicidal pre-emergence action, 320 g/ha (Table C1); details: visual grading after ca. 3 weeks vs untreated controls
From the text: (§2) Seeds of mono- and dicotyledonous weed plants were sown in plastic pots (double sowings with one species of mono- and one species of dicotyledonous weed plants per pot), in sandy loam, and covered with soil. The compounds according to the invention, formulated in the form of wettable powders (WP) or as emulsifiable concentrates (EC), were applied to the surface of the covering soil as an aqueous suspension or as an emulsion, with the addition of 0.5% of an additive, at an application rate of 600 litres of water per hectare (converted). Following treatment, the pots were placed in a greenhouse and kept under optimum growth conditions for the test plants. The visual grading of the damage to the test plants was carried out after ca. 3 weeks in comparison to untreated controls (herbicidal effect in percent (%): 100% effect=plants have died, 0% effect=as control plants). Tables C1 to C6 below, show the effects of selected compounds of the general formula (I) according to Table 1 on various harmful plants using an application rate corresponding to 320 g/ha obtained by the experimental procedure mentioned above.

[3] = test system: Alopecurus myosuroides (ALOMY); test: Herbicidal pre-emergence action, 1280 g/ha (Table A2); details: visual grading after ca. 3 weeks vs untreated controls
From the text: as §2, with “A1” for “C1”, “A11” for “C6”, “and” for “using”, “1280” for “320”

[4] = test system: Poa annua (POAAN); test: Herbicidal pre-emergence action, 1280 g/ha (Table A7); details: visual grading after ca. 3 weeks vs untreated controls
In short: as §1

[5] = test system: Poa annua (POAAN); test: Herbicidal pre-emergence action, 320 g/ha, POAAN; details: visual grading after ca. 3 weeks
From the text: as §2, with “plants).” for “plants). Tables C1 to C6 below, show the effects of selected compounds of the general formula (I) according to Table 1 on various harmful plants using an application rate corresponding to 320 g/ha obtained by the experimental procedure mentioned above.”
(§3) Tables C1 to C6 below, show the effects of selected compounds of the general formula (I) according to Table 1 on various harmful plants using an application rate corresponding to 320 g/ha obtained by the experimental procedure mentioned above.

[6] = test system: Abutilon theophrasti (ABUTH); test: Herbicidal pre-emergence action, 1280 g/ha (Table A1); details: visual grading after ca. 3 weeks vs untreated controls
In short: as §1

[7] = test system: Lolium rigidum (LOLRI); test: Herbicidal pre-emergence action, 1280 g/ha (Table A5); details: visual grading after ca. 3 weeks vs untreated controls
In short: as §1

[8] = test system: Matricaria inodora (MATIN); test: Herbicidal pre-emergence action, 1280 g/ha (Table A6); details: visual grading after ca. 3 weeks vs untreated controls
In short: as §1

[9] = test system: Setaria viridis (SETVI); test: Herbicidal pre-emergence action, 1280 g/ha (Table A8); details: visual grading after ca. 3 weeks vs untreated controls
In short: as §1

[10] = test system: Stellaria media (STEME); test: Herbicidal pre-emergence action, 1280 g/ha (Table A9); details: visual grading after ca. 3 weeks vs untreated controls
In short: as §1

[11] = test system: Amaranthus retroflexus (AMARE); test: Herbicidal pre-emergence action, 1280 g/ha (Table A11); details: visual grading after ca. 3 weeks vs untreated controls
In short: as §1

[12] = test system: Abutilon theophrasti (ABUTH); test: Herbicidal post-emergence action, 1280 g/ha (Table B1); details: visual assessment after ca. 3 weeks vs untreated controls
In short: (§4)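 Weeds grown in sandy loam under controlled conditions were sprayed post-emergence at the single-leaf stage, 2 to 3 weeks after sowing, with WP or EC formulations plus 0.5% additive at 600 L water/ha. Visual % damage versus untreated controls was scored after ca. 3 weeks in the greenhouse.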

[13] = test system: Kochia scoparia (KCHSC); test: Herbicidal post-emergence action, 1280 g/ha (Table B4); details: visual assessment after ca. 3 weeks vs untreated controls
In short: as §4

[14] = test system: Lolium rigidum (LOLRI); test: Herbicidal post-emergence action, 1280 g/ha (Table B5); details: visual assessment after ca. 3 weeks vs untreated controls
In short: as §4

[15] = test system: Matricaria inodora (MATIN); test: Herbicidal post-emergence action, 1280 g/ha (Table B6); details: visual assessment after ca. 3 weeks vs untreated controls
In short: as §4

[16] = test system: Stellaria media (STEME); test: Herbicidal post-emergence action, 1280 g/ha (Table B9); details: visual assessment after ca. 3 weeks vs untreated controls
In short: as §4

[17] = test system: Veronica persica (VERPE); test: Herbicidal post-emergence action, 1280 g/ha, VERPE; details: visual grading vs untreated controls
In short: (§5)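 Pot-grown weeds in sandy loam sprayed post-emergence at the single-leaf stage, 2–3 weeks after sowing, with WP or EC formulations plus 0.5% additive in 600 L water/ha at 1280 g/ha. After ca. 3 weeks in the greenhouse, damage scored visually as % effect versus untreated controls (100% = plants dead).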

[18] = test system: Amaranthus retroflexus (AMARE); test: Herbicidal post-emergence action, 1280 g/ha, AMARE; details: visual grading vs untreated controls
In short: as §5

[19] = test system: Stellaria media (STEME); test: Herbicidal pre-emergence action, 320 g/ha, STEME; details: visual grading after ca. 3 weeks
In short: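 Weed seeds sown in sandy loam pots; WP or EC formulations applied pre-emergence to the covering soil surface at 320 g/ha with 0.5% additive in 600 L water/ha. Greenhouse growth; visual damage scored after ca. 3 weeks versus untreated controls (100% = plants died, 0% = as control).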

[20] = test system: Amaranthus retroflexus (AMARE); test: Herbicidal pre-emergence action, 320 g/ha, AMARE; details: visual grading after ca. 3 weeks
From the text: as §2, with “plants).” for “plants). Tables C1 to C6 below, show the effects of selected compounds of the general formula (I) according to Table 1 on various harmful plants using an application rate corresponding to 320 g/ha obtained by the experimental procedure mentioned above.”
as §3

[21] = test system: Abutilon theophrasti (ABUTH); test: Herbicidal post-emergence action, 320 g/ha, ABUTH; details: visual grading after ca. 3 weeks
In short: (§6)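 Post-emergence spray at single-leaf stage; WP/EC in aqueous suspension/emulsion, 0.5% additive, 600 L water/ha. Greenhouse ~3 wk, visual rating vs untreated: 0% = as control, 100% = plants dead.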

[22] = test system: Kochia scoparia (KCHSC); test: Herbicidal post-emergence action, 320 g/ha, KCHSC; details: visual grading after ca. 3 weeks
In short: as §6

[23] = test system: Lolium rigidum (LOLRI); test: Herbicidal post-emergence action, 320 g/ha, LOLRI; details: visual grading after ca. 3 weeks
In short: as §6

[24] = test system: Stellaria media (STEME); test: Herbicidal post-emergence action, 320 g/ha, STEME; details: visual grading after ca. 3 weeks
In short: as §6

[25] = test system: Echinochloa crus-galli (ECHCG); test: Herbicidal post-emergence action, 1280 g/ha (Table B3); details: visual assessment after ca. 3 weeks vs untreated controls
From the text: (§7) Seeds of mono- and dicotyledonous weed plants were sown in plastic pots (double sowings with one species of mono- and one species of dicotyledonous weed plants per pot), in sandy loam, covered with soil and grown under controlled growth conditions. 2 to 3 weeks after sowing, the test plants were sprayed in the single-leaf stage. The compounds according to the invention, formulated in the form of wettable powders (WP) or as emulsifiable concentrates (EC), were sprayed onto the green plant parts as an aqueous suspension or as an emulsion, with the addition of 0.5% of an additive, at an application rate of 600 litres of water per hectare (converted). The test plants were placed in the greenhouse for ca. 3 weeks under optimum growth conditions, and then the effect of the preparations was assessed visually in comparison with untreated controls (herbicidal effect in percent (%): 100% effect=plants have died, 0% effect=as control plants). Tables B1 to B11 below, show the effects of selected compounds of the general formula (I) according to Table 1 on various harmful plants using an application rate corresponding to 1280 g/ha obtained by the experimental procedure mentioned above.

[26] = test system: Lolium rigidum (LOLRI); test: Herbicidal pre-emergence action, 320 g/ha (Table C2); details: visual grading after ca. 3 weeks vs untreated controls
In short: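 Applied pre-emergence to the surface of soil covering weed seeds sown in sandy loam, as WP or EC formulations in water with 0.5% additive at 600 L/ha. Greenhouse-grown; damage graded visually at ca. 3 weeks as percent of untreated controls (100% = plants died).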

[27] = test system: Echinochloa crus-galli (ECHCG); test: Herbicidal post-emergence action, 320 g/ha, ECHCG; details: visual grading after ca. 3 weeks
From the text: as §7, with “plants).” for “plants). Tables B1 to B11 below, show the effects of selected compounds of the general formula (I) according to Table 1 on various harmful plants using an application rate corresponding to 1280 g/ha obtained by the experimental procedure mentioned above.”
Tables D1 to D8 below, show the effects of selected compounds of the general formula (I) according to Table 1 on various harmful plants using an application rate corresponding to 320 g/ha obtained by the experimental procedure mentioned above.

[28] = test system: Matricaria inodora (MATIN); test: Herbicidal post-emergence action, 320 g/ha, MATIN; details: visual grading after ca. 3 weeks
In short: as §6

[29] = test system: Amaranthus retroflexus (AMARE); test: Herbicidal post-emergence action, 320 g/ha, AMARE; details: visual grading after ca. 3 weeks
In short: as §6

[30] = test system: Setaria viridis (SETVI); test: Herbicidal post-emergence action, 1280 g/ha (Table B8); details: visual assessment after ca. 3 weeks vs untreated controls
In short: as §4

[31] = test system: Veronica persica (VERPE); test: Herbicidal post-emergence action, 320 g/ha, VERPE; details: visual grading after ca. 3 weeks
In short: as §6

| SMILES | herbicidal effect KCHSC [1] [%] | herbicidal effect KCHSC [2] [%] | herbicidal effect POAAN [4] [%] | herbicidal effect POAAN [5] [%] | herbicidal effect LOLRI [7] [%] | herbicidal effect MATIN [8] [%] | herbicidal effect STEME [10] [%] | herbicidal effect AMARE [11] [%] | herbicidal effect ABUTH [12] [%] | herbicidal effect KCHSC [13] [%] | herbicidal effect LOLRI [14] [%] | herbicidal effect MATIN [15] [%] | herbicidal effect STEME [16] [%] | herbicidal effect VERPE [17] [%] | herbicidal effect AMARE [18] [%] | herbicidal effect STEME [19] [%] | herbicidal effect ABUTH [21] [%] | herbicidal effect KCHSC [22] [%] | herbicidal effect STEME [24] [%] | herbicidal effect AMARE [29] [%] | also measured |
| --- | --- | --- | --- | --- | --- | --- | --- | --- | --- | --- | --- | --- | --- | --- | --- | --- | --- | --- | --- | --- | --- |
| Cc1nn(C)c(=O)c(Oc2ccc(Cl)cc2)c1O [Example I-002] | 90 | 90 | – | – | – | – | – | – | – | – | – | – | – | – | – | – | – | – | – | – | – |
| Cc1nn(C)c(=O)c(Oc2ccccc2OC(F)(F)F)c1O [Example I-008] | – | – | 100 | 100 | – | – | – | – | – | – | – | – | – | – | – | – | – | – | – | – | herbicidal effect ALOMY [3]: 100% |
| CCOC(=O)Oc1c(C)nn(C)c(=O)c1Oc1ccccc1C1CC1 [Example I-012] | 100 | – | 90 | 90 | 100 | 90 | 100 | 100 | 100 | 100 | 100 | 100 | 100 | 90 | 90 | 90 | 100 | 100 | 100 | – | herbicidal effect ABUTH [6]: 100%; herbicidal effect SETVI [9]: 100%; herbicidal effect AMARE [20]: 100%; herbicidal effect LOLRI [23]: 100% |
| Cc1nn(C)c(=O)c(Oc2cc(Cl)ccc2Cl)c1O [Example I-016] | – | – | – | – | 100 | 100 | 100 | 90 | 100 | 100 | 90 | 90 | 100 | 90 | 100 | – | 100 | 90 | 100 | 100 | herbicidal effect ECHCG [25]: 90%; herbicidal effect LOLRI [26]: 90%; herbicidal effect ECHCG [27]: 90%; herbicidal effect LOLRI [23]: 90%; herbicidal effect MATIN [28]: 90% |
| Cc1nn(C)c(=O)c(Oc2ccc(Cl)cc2Cl)c1OC(=O)C1CCC1 [Example I-064] | – | – | – | – | – | – | – | – | – | 100 | – | 100 | 100 | 90 | 100 | – | – | 100 | 90 | 100 | herbicidal effect ECHCG [25]: 100%; herbicidal effect SETVI [30]: 90%; herbicidal effect ECHCG [27]: 100%; herbicidal effect MATIN [28]: 90% |
| Cc1nn(C)c(=O)c(Oc2cc(F)c(F)cc2C2CC2)c1OC(=O)C(C)C [Example I-102] | 90 | 90 | – | – | 90 | 100 | 100 | 100 | 100 | 100 | 90 | 100 | 100 | 90 | 100 | 90 | – | – | 90 | 90 | herbicidal effect VERPE [31]: 90% |
